Literature values as cited in patent US20230024050A1, “Dermatological Compositions and Methods of Treatment against Cutaneous T-Cell Lymphoma” (Soligenix, Inc., priority 2021, published 2023).
Where two headings read alike, the source gives them in different places.

Columns and labels:
[1] = system: CTCL patients IA, IB, IIA refractory to ≥2 previous treatments; conditions: at end of therapy, time not stated
[2] = administered intravenously at much higher doses

Structure (SMILES) | Response (CAILS), 24 Week ([1]; 6.5 mg/m^2, N = 15) [%^1] | Response (CAILS), 24 Week ([1]; 300 mg/m^2, N = 28) [%^1] | Response (CAILS), 24 Week ([1]; >300 mg/m^2, N = 15) [%^1] | Significant AEs on intravenous administration [2]
C=C(c1ccc(C(=O)O)cc1)c1cc2c(cc1C)C(C)(C)CCC2(C)C [Oral Bexarotene, Bexarotene] | 20 | 36 | 47 | 
Cc1cc(O)c2c(=O)c3c(O)cc(O)c4c5c(O)cc(O)c6c(=O)c7c(O)cc(C)c8c1c2c(c34)c(c78)c65 [hypericin] |  |  |  | does not cause significant AEs other than those related to photoactivity
